Patent publication US10399994B2, “Compounds and methods for preventing or treating sensory hair cell death” (UNIVERSITY OF WASHINGTON, priority 2015, dated 2019)
“And” between values parts separate entries of the source, which are not always exact repeats. Equal values may be shown once. Where a name gives a salt, the structure may show the parent alone.

Experiments:
[1] = test system: hair cells; experiment: Neomycin Hair Cell Toxicity Assay in Zebrafish; format: in vivo
Description: Zebrafish are bred and newly fertilized embryos are collected the week prior and raised at 28.5° C. in petri dishes containing embryo medium. Newly hatched free-swimming larvae are fed paramecium and dry fish food at 4 days post fertilization (dpf) with lights on. For treatment, fish 5-7 dpf are transferred to cell culture baskets and place within a well of a 6-well plate containing 7 milliliters of 1× embryo medium. Typically, tests are done with ten fish per basket but work well with up to 50 fish. All treatment and wash volumes are 7 milliliters.
1. Fish are pre-treated with test compound for 1 hour. Concentrations between 0.010 to 25 micromolar of test compound are tested.
2. Treat with 200 micromolar neomycin (neomycin sulfate, Sigma, St. Louis, Mo., catalog #N1142)+ test compound for 30 minutes.
3. […]
5. […] The DASPEI staining of ten neuromasts (SO1, SO2, IO1, IO2, IO3, IO4, M2, MI1, MI2 and O2) on one side of an animal are evaluated. Each neuromast is scored for presence of DASPEI staining (score=2), reduced DASPEI staining (score=1) or absence of DASPEI staining (score=0). […] Average scores and standard deviations are calculated for animals in each treatment group. Scores are normalized to control group (vehicle only, no drug, no neomycin) and expressed as % hair cell survival. […] If less than 50% hair cells survive, the HC50 is not determined. […]

[2] = test system: hair cells; experiment: Cisplatin Hair Cell Toxicity Assay in Zebrafish; format: in vivo; conditions: cisplatin 50 μM for 24 hrs
Description: Zebrafish are bred and newly fertilized embryos are collected the week prior and raised at 28.5° C. in petri dishes containing embryo medium. Newly hatched free-swimming larvae are fed paramecium and dry fish food at 4 days post fertilization (dpf) with lights on. For treatment, fish 5-7 dpf are transferred to cell culture baskets and place within a well of a 6-well plate containing 7 milliliters of 1× embryo medium. Typically, tests are done with ten fish per basket but work well with up to 50 fish. All treatment and wash volumes are 7 milliliters. • 1. In a 48-well plate, place 10-12 fish/well in 300 μl of EM. • 2. Add ORC-13661 and vehicle control to each well at concentrations listed below. Swirl and place in incubator for 15 min. ORC-13661 concentrations tested: 0.103 μM, 0.308 μM, 0.925 μM, 2.78 μM, 8.33 μM. • 3. Add cisplatin 50 μM to pretreated and control wells. Swirl and place in incubator for 24 hrs. • 4. Place 1-2 drops of MS222 in each well to anesthetize fish, then aspirate treated EM. • 5. Add 300 μl/well of 4% paraformaldehyde to fix fish. Fix overnight at 4° C. or 2 hrs at room temperature (RT). • 6. Rinse wells with PBS for 15 min each 3 times. • 7. Add 300 μl/well of blocking solution for 1 hr at RT. • 8. Incubate with 300 μl/well of 1:400 mouse anti-Parvalbumin antibody overnight at 4° C. • 9. Rinse wells with PBS-T for 15 min each 3 times. • 10. […]

[3] = test system: rats; experiment: Auditory Brainstem Response (ABR) Assay; format: in vivo; conditions: Day 24 vs Day 0, FIG. 2
Description: Chronic treatment of rats with aminoglycosides (AGs) such as kanamycin or amikacin results in an elevation of ABR thresholds, typically most pronounced at higher frequencies. For rats, hearing is tested at a range of frequencies to determine the intensity of sound (measured in decibels) necessary to evoke a response. As hearing loss becomes more severe, a higher intensity is needed to evoke a response. Each rat serves as its own control; hearing thresholds are determined at each frequency prior to any treatment and then at 2 weeks after a 10-day course of AG treatment (or control drug exposures).
The ABR assay measures short latency field potentials recorded from the scalp of animals that were sedated or noninvasively immobilized. […] For each animal, hearing thresholds, wave 1 latencies and input-output functions for stimulus frequencies at 2, 4, 8, 16 and 32 kHz were measured prior to any treatment to determine the initial sensitivity and dynamic range of hearing, and then repeated at the end of drug treatment and at the end of the experiment (2-weeks after dosing). […]
ABR records were evaluated by a “blinded”, trained experimenter. Hearing loss (Threshold Shift) was determined by subtracting the threshold during pre-treatment (Day 0) from the final ABR threshold (Day 24; two weeks following treatment). […]

[4] = test system: kidney; experiment: Effect of Amikacin and Compound 9 on Kidney Function; format: in vivo, Fischer 344 rats; conditions: for creatinine clearance (CrCl) post-treatment compared to pretreatment: FIG. 3; for kidney histopathology damage score (0-4): FIG. 4
Description: The study consisted of three groups of Fischer 344 rats aged 6 weeks and weighing approximately 200 g at the start of the study. Group 1 consisted of six rats, randomly selected to receive amikacin only, Group 2 consisted of six rats chosen randomly to receive amikacin and compound 9, and Group 3 consisted of three rats, 2 rats given compound 9 and 1 rat given only 0.5% Methylcellulose, the diluent for compound 9. All animals receiving amikacin were given 320 mg/kg subcutaneously (SQ) from a freshly prepared solution of amikacin of 40 mg/mL. The compound 9 formualtion was prepared by weighing 13.08 mg of compound 9 dissolved in 12 mL of 0.5% MC in saline with vortexing, sonification and homogenization to obtain a solution with concentration at 12 mg/12 mL=1 mg/mL, dose volume is 5 mL/kg (5 mg/kg). The compound 9 solution was given by oral gavage at a dose of 5 mg/kg.
One day prior to the onset of dosing, blood was drawn from all rats for serum analysis and all rats were put into metabolic cages for 24 hour urine collection and analysis. All rats were returned to normal cages and allowed to eat and drink ad lib. All rats received their assigned treatments for 10 days and then were returned to metabolic cages for the 10th day. Three rats were randomly chosen from each of Group 1 and Group 2 to have additional blood draws at 30 min, 60 mn, 2 hr, 4 hr, 8 hr and 24 hr after the 10th dose for amikacin and compound 9 PK analysis. All rats had blood drawn for serum analysis at the end of day 10 and the 24 hour urine collected from day 10. After the final blood draw, all rats were euthanized and their kidneys removed and prepared for histopathology testing. The left kidneys were longitudinally sectioned, the right kidneys were cross sectioned. The pathologist read the slides, blinded to the group from which they were assigned. They graded viewed five different locations on each slide and gave each location a score for degree of damage: no damage (0 score); minimal (1-10%, 1 score), mild (11-20%, 2 score), moderate (21-50%, 3 score), or marked (51-100%, 4 score).
Previous studies have shown that aminoglycoside renal toxicity primarily affects the proximal and distal tubules of the kidney, eventually causing […] of the epithelial cells. The resulting damage causes, in part, decreased glomerular filtration rate (GFR) which may be a result of the tubular damage or partly through other mechanisms. The GFR was approximated using the creatinine clearance. […] The one-sided two-sample t-test p-value for the comparison of the amikacin only (Group 1) and amikacin+compound 9 (Group 2) are shown in a box between the two columns.

| Structure (SMILES) | EC50 ([1]; Danio rerio, concentration that would produce 50% hair cell survival, 1 hour pre-treatment, then 200 micromolar neomycin + test compound for 30 minutes, read-out: HC50 (the source's name)) [nM] | Max HC Protection ([1]; at 2.6 μM, 200 micromolar neomycin, % hair cell survival normalized to control) [% protection at 2.6 μM] | EC50 ([2]; Danio rerio, 15 min pretreatment, read-out: HC50 (the source's name)) [nM] | Max HC Protection ([2]; at 8.33 μM, hair cell counts as % control) [% protection at 8.33 μM] | Hearing loss (ABR Threshold Shift), high frequency ([3]; Amikacin SC 320 mg/kg/day + Compound 9 PO 5 mg/kg/day for 10 days) | creatinine clearance (CrCl) post-treatment compared to pretreatment ([4]; Group 2: amikacin 320 mg/kg SQ + compound 9 5 mg/kg oral gavage for 10 days) | kidney histopathology damage score (0-4) ([4]; amikacin + compound 9 treated rats, longitudinal and cross sectioning (values not assigned to section in text), vs amikacin only p<0.005, hydrochloride) | Hearing loss (ABR Threshold Shift) ([3]; Amikacin alone SC 320 mg/kg/day for 10 days) | creatinine clearance (CrCl) post-treatment compared to pretreatment ([4]; Group 1: amikacin only 320 mg/kg SQ for 10 days) | kidney histopathology damage score (0-4) ([4]; amikacin only rats, longitudinal and cross sectioning of the kidney) |
| --- | --- | --- | --- | --- | --- | --- | --- | --- | --- | --- |
| CN1[C@H]2CC[C@@H]1c1c(sc(NC(=O)Nc3ccc(Cl)cc3)c1C(N)=O)C2 [Compound 9, (4R,7S)-2-(3-(4-chlorophenyl)ureido)-9-methyl-5,6,7,8-tetrahydro-4H-4,7-epiminocyclohepta[b]thiophene-3-carboxamide hydrochloride] | < 1000 | 96 | < 1000 | 90 | robust protection | significantly different from baseline | 3.6 and 3.1 | – | – | – |
| NCC[C@H](O)C(=O)N[C@@H]1C[C@H](N)[C@@H](O[C@H]2O[C@H](CN)[C@@H](O)[C@H](O)[C@H]2O)[C@H](O)[C@H]1O[C@H]1O[C@H](CO)[C@@H](O)[C@H](N)[C@H]1O [amikacin, reference compound] | – | – | – | – | – | – | – | hearing loss | significantly different from baseline | 3.9 |
